Earlier results in EP0398143B1, “Labeled chemotactic peptides to image focal sites of infection or inflammation” (THE GENERAL HOSPITAL CORPORATION, priority 1989, dated 1990).
Non-standard residues stand in square brackets, D forms with d. Residues, ends and D or L forms follow the SMILES beside them. *: point of attachment. Nle = CCCC[C@H](N)C(=O)O; For = O=C*

Molecular target: T1, receptors on human neutrophils (Homo sapiens, UniProt P21462)
T1 construct: host or cells: human neutrophils (endogenous receptor)
T1 sequence (P21462 1-350): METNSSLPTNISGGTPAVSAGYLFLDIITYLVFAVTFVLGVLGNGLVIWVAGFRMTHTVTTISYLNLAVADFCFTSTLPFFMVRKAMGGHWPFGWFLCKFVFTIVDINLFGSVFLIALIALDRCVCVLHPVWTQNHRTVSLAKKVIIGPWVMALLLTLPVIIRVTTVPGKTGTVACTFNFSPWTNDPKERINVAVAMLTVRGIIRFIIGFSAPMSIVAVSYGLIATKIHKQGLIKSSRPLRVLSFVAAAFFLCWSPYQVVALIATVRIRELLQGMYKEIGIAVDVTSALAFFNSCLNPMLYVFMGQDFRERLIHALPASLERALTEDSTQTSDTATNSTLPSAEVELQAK
Settings: peptide labeled with ¹²⁵I at the Tyr residue

CCCC[C@H](NC=O)C(=O)N[C@@H](CC(C)C)C(=O)N[C@@H](Cc1ccccc1)C(=O)N[C@@H](CCCC)C(=O)N[C@@H](Cc1ccc(O)cc1)C(=O)N[C@@H](CCCCN)C(=O)O [N-formyl-Nle-Leu-Phe-Nle-Tyr-Lys] (For-[Nle]LF[Nle]YK-OH)
binding to receptors on human neutrophils: bind strongly
